Results taken from patent US4139531A, “1-Nitro-9-alkylaminoalkylaminoacridines and salts thereof” (Politechnika Gdanska, priority 1976, dated 1979).
Values joined by “and” are separate entries in the source; they are usually repeats but may differ in a detail not shown here. Equal values may be shown once.

Assays:
[1] = system: Crocker mice sarcoma (Sa-180); assay: Growth inhibition of the Crocker mice sarcoma (Sa-180); assay type: in vivo; conditions: dosage of 0.2 mg/kg, intraperitoneally, dihydrochloride
Experimental: The growth inhibition of the Crocker mice sarcoma (Sa-180).
For this investigation, mice of about three months in age and a weight of about 25 g were used. These animals were inoculated with a section of the neoplasm (Sa-180) and were divided into groups: the first of control - 10 mice; and two to four groups of "under treatment" ones (seven mice each).
The compounds investigated were administered intraperitoneally in appropriate doses, after previous determination of the maximum tolerance dosage.
A criterion of the evaluation the anti-neoplastic activity of the compounds tested was accepted wherein the percent difference between mean weights of the nodules (tumours) of control mice and of those which received the preparations, taking into account the toxic effects.

central nervous system = assay type: in vivo, mice
rabbits and cats = assay: Arterial blood pressure, respiratory function, electrocardiogram and lethal dosage in rabbits and cats; assay type: in vivo
[2] = Acute toxicity, LD50, rat; conditions: in vivo, observations over 72 hours
Experimental: (§1) The biological activity analysis was supported by detailed pharmacologic examinations. After observations made over 72 hours, it was determined that the LD50 -value for the preparation C-846 for mice and rats (in mg/kg), was as follows: […]

Local irritating action = assay type: in vivo
[3] = Acute toxicity, LD50, mouse; conditions: in vivo, observations over 72 hours
Experimental: as §1

[4] = system: small intestine; muscular coat of the urinary bladder; assay: Spasmolytic activity in vivo, small intestine and urinary bladder of rabbit and cat; conditions: intravenous, dosages of more than 5 mg/kg
[5] = Maximum tolerance dosage (MTD), mouse; conditions: in vivo
Experimental: (§2) Moreover, the maximum tolerance dosage (MTD) for mice and rats was determined (in mg/kg), as follows: […]

[6] = system: isolated small intestine of rat; assay: Spasmolytic activity, isolated small intestine of rat; conditions: concentration of 10^-5
[7] = Maximum tolerance dosage (MTD), rat; conditions: in vivo
Experimental: as §2

[8] = system: isolated small intestine of guinea-pig; assay: Spasmolytic activity, isolated small intestine of guinea-pig; conditions: concentration 5 × 10^-6
rats and rabbits = assay: Prolonged (three-month) toxicity investigations on rats and rabbits; assay type: in vivo
Experimental: Prolonged investigations were carried out on rats and rabbits during the whole three-month-exposition period of time, introducing dosages corresponding to 1/150, 1/100 and 1/50 of the LD50 -value. This last dosage was a dosage which was maximally tolerated during this period of time.

rats = assay: Reproduction and offspring development in rats; assay type: in vivo
[9] = large dosages, more than 8 mg/kg
[10] = rabbits and cats, intraperitoneal, dosages up to 10 mg/kg

CCNCCCNc1c2ccccc2nc2cccc([N+](=O)[O-])c12.Cl.Cl [Example C-845, 1-nitro-9-ethylaminopropylaminoacridine dihydrochloride]
inhibition values of Crocker's sarcoma (Sa-180) [1]: 48% and 49% and 57%

CC(C)NCCCNc1c2ccccc2nc2cccc([N+](=O)[O-])c12.Cl.Cl [Example C-846, 1-nitro-9-isopropylaminopropylaminoacridine dihydrochloride]
influence on spontaneous and forced motor activity (central nervous system; mice, dosages up to 1/10 LD50): did not influence in such dosages in essential manner
influence on the action of hypnotic agents (luminal, chloral hydrate) and of convulsant agents (Cardiazol, strychnine) (central nervous system; mice, dosages up to 1/10 LD50): did not influence
activity on the central nervous system (central nervous system; mouse, in vivo): did not demonstrate any evident and oriented activity
effect on blood pressure (rabbits and cats; intravenous injection, 2 mg/kg): insignificant and transient hypotony
effect on respiration (rabbits and cats; intravenous injection, 2 mg/kg): instinctive acceleration of deepened respiration
PQ segment (rabbits and cats; [9]): prolongation of the PQ segment
QRS-Complex (rabbits and cats; [9]): dilation of the QRS-Complex
changes in electrocardiograms (rabbits and cats; [9]): transient changes in electrocardiograms were noted, due to the disturbances of the atrio-ventricular and intra-ventricular conductivity
effects of the lethal dosages (rabbits and cats; rabbits and cats, about 15 mg/kg, i.v.): permanent hypotony and respiration disturbances or even apnoea
lethal dosages (rabbits and cats; rabbits and cats, i.v.): ~15 mg/kg
effect on the arterial blood pressure (rabbits and cats; [10]): did not have any effect
effect on the respiratory function (rabbits and cats; [10]): did not have any effect
LD50 at 72 h ([2]; iv): 0.95 ± 0.1 mg/kg
LD50 at 72 h ([2]; po): 127 ± 17.8 mg/kg
local irritating action (Local irritating action; concentrations of from 0.05 to 1.0%): exerted a local irritating action
local changes caused by the intravenous injection (Local irritating action; phosphate buffer solution at pH 7 as solvent): could be eliminated
LD50 at 72 h ([3]; iv): 2.2 ± 0.1 mg/kg
LD50 at 72 h ([3]; po): 126 ± 24.7 mg/kg
spasmolytic activity regarding the small intestine and the muscular coat of the urinary bladder [4]: such an activity
MTD ([5]; iv): 1.85 mg/kg
MTD ([5]; po): 27.2 mg/kg
muscular tension and spontaneous intestine peristalsis (spasmolytic activity) [6]: a decrease was noted in the muscular tension and an atrophy of spontaneous intestine peristalsis
MTD ([7]; iv): 0.63 mg/kg
MTD ([7]; po): 75 mg/kg
muscular tension and spontaneous intestine peristalsis (spasmolytic activity) [8]: a decrease was noted in the muscular tension and an atrophy of spontaneous intestine peristalsis
blood coagulation time (rats and rabbits; in the third month): a certain prolongation was noted
histology, germinal epithelium / testicles (rats and rabbits; in vivo): some degenerative lesions appeared in a range of the germinal epithelium, in the range of testicles
histology, intestinal epithelium and glandular texture (rats and rabbits; in vivo): a desquamation (desfoliation) of the intestinal epithelium and an atrophy of the glandular texture
histology, lymphatic system (rats and rabbits; in vivo): a decrease in the amount of the reproductive centers was noted, as well as a decrease in the amount of the small lymphocytes
histology, other internal organs (rats and rabbits; in vivo): did not show any other microscopic changes
histology, spermatogenesis (rats and rabbits; in vivo): some disturbances in spermatogenesis, a decrease in the amount of sperm cells
activity of the acid phosphatase (rats and rabbits; only after the highest dosages, prolonged time of exposition): increase in activity of the acid phosphatase was observed
hepatic functional tests (AlAt, AspAt, acid and alkaline phosphatases, thymol turbidity test) (rats and rabbits; rats and rabbits, three months): did not show an occurrence of any pathologic lesions
influence on the peripheral blood or medular hematopoietic system (rats and rabbits; rats and rabbits, three months): could not be proved, that the preparation had influence
renal tests (creatinine clearance, glomerular filterability) (rats and rabbits; rats and rabbits, three months): did not show any deviation from the norm
dosage maximally tolerated during three months (rats and rabbits; rats and rabbits, three-month exposition): 1/50
amount of infant animals in the brood (rats): decreased
capacity to conceive or induce conception / ability of females to become pregnant (rats): did not inhibit
macroscopic malformations (rats): no macroscopic malformations were observed
ontogenetic development of infant animals (rats): retarded
